{"source": "patent EP2800973B1", "about": "(priority 2012, dated 2013)", "key": {"[1]": {"test_system": "BoCell™ model cell line", "type": "cell-based", "settings": "for increase in BoCell™ Assay sensitivity: Figure 1, 24 hr pre-treatment with drug, then BoNT/A containing drug for an additional 24 hr, YFP/CFP emission ratio"}, "[2]": {"test_system": "neuroblastoma cells", "settings": "pretreatment of cells; 1990 JBC paper; cited from earlier work"}, "[3]": {"test_system": "BoCell™ modified neuroblastoma cells", "type": "cell-based"}, "[4]": {"test_system": "BoCells"}}, "note": "Like-named read-outs stand apart in the source and are kept apart here.", "data": [{"compound": "CC(C)Cn1c(=O)n(C)c(=O)c2[nH]cnc21", "note": "[IBMX]", "values": [{"measurement": "increase in BoCell™ Assay sensitivity", "setting": "[1]", "value": "not and increased sensitivity was not seen"}]}, {"compound": "N=C(N)NCCNS(=O)(=O)c1cccc2cnccc12", "note": "[HA1004]", "values": [{"measurement": "morphologic changes in neuroblastoma cells", "setting": "[2]", "value": "failed to induce morphologic changes"}]}, {"compound": "CC1CNCCN1S(=O)(=O)c1cccc2cnccc12.Cl.Cl", "note": "(centres unmarked) [H7, 1-(5-isoquinolinylsulfonyl)-2-methylpiperazine dichloride]", "values": [{"measurement": "increase in BoCell™ Assay sensitivity", "setting": "[1]", "value": "cause an increase in BoCell™ Assay sensitivity"}, {"measurement": "H7 effect on assay sensitivity, dose dependence", "setting": "[1]; Figure 2A, 24 hr pre-treatment, then BoNT/A with H7 for 24 hr", "value": "dose dependent"}, {"measurement": "increase in sensitivity with multiple H7 lots", "setting": "[1]; Figure 5, 0.75 mM H7 from three independent manufacturers, 24 hrs pre-incubation, then BoNT/A 24 hrs", "value": "all cause an increase in sensitivity"}, {"measurement": "sensitivity of cells to BoNT/A treatment as measured by SNAP-25 reporter cleavage", "setting": "[1]; pretreatment of cells with H7", "value": "significantly increased"}, {"measurement": "H7 concentration giving maximal effects", "setting": "[3]", "value": "ImM"}, {"measurement": "neurite length and neurite number per cells", "setting": "[3]", "value": "rapid increases in both neurite length and neurite number per cells"}, {"measurement": "reversibility of the phenotypic change", "setting": "[3]", "value": "could be \"rescued\" by removal of the H7"}, {"measurement": "time and dose dependence of the H7 effect", "setting": "[3]", "value": "both time and dose-dependent"}, {"measurement": "cell viability", "setting": "[4]", "value": "does not affect cell viability"}]}, {"compound": "Calphostin C", "values": [{"measurement": "increase in BoCell™ Assay sensitivity", "setting": "[1]", "value": "increased sensitivity was not seen"}, {"measurement": "increase in BoCell™ Assay sensitivity", "setting": "[1]; listed as calphostin", "value": "not"}]}, {"compound": "Nc1ncnc2c1nc(Br)n2[C@@H]1O[C@@H]2COP(=O)(O)O[C@H]2[C@H]1O", "note": "[8-Bromoadenosine-cAMP]", "values": [{"measurement": "increase in BoCell™ Assay sensitivity", "setting": "[1]", "value": "increased sensitivity was not seen"}, {"measurement": "increase in BoCell™ Assay sensitivity", "setting": "[1]; listed as 8-Br-cAMP", "value": "not"}]}, {"compound": "CCCC(=O)Nc1ncnc2c1ncn2[C@@H]1O[C@@H]2COP(=O)(O)O[C@H]2[C@H]1OC(=O)CCC", "note": "[dibutyryl-cAMP, dibutyryl-cyclic AMP]", "values": [{"measurement": "increase in BoCell™ Assay sensitivity", "setting": "[1]", "value": "increased sensitivity was not seen"}, {"measurement": "increase in BoCell™ Assay sensitivity", "setting": "[1]; listed as db-cAMP", "value": "not"}]}]}
